Measured values published in patent US5990094A, “Inhibitors of sorotonin N-acetyltransferase” (The Rockefeller University, priority 1998, dated 1999).
Where “and” joins values, the source holds several entries; their conditions need not be identical. Equal values may be shown once. Entries after “also recorded” stand apart in the source; their conditions may differ. Read-outs that look alike come from different tables or passages of the source.

Tests used:
AANAT [1] = target: T1, AANAT (Ovis aries, UniProt Q29495); assay: Tryptamine analogs as AANAT substrates, steady-state kinetic parameters
T1 sequence (Q29495 whole entry): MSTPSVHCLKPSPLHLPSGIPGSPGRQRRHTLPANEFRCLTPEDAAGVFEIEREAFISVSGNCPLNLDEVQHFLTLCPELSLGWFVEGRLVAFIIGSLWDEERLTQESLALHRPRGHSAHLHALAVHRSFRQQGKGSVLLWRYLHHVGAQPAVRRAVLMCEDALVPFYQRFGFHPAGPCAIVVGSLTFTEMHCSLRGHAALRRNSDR
Protocol: Expression of eukaryotic proteins in bacteria is unpredictable.
The enzymatic assays available for AANAT were direct, radioactive assays. […] Thus indirect methods to measure CoASH formation were tested.
The first objective of these studies was to determine the tolerance of alkyl chain length for substrate processing efficiency. […] Indole-propylamine (7.1) and indole-butylamines(7.2) are not commercially available and were prepared as shown (FIG. 7) (6l).
Another important selectivity issue was addressing the effects of a-methyl and Nw-methyl-substitutions of tryptamine analogs (FIG. 8) on AANAT catalysis. […] These compounds were obtained from commercial sources and tested as AANAT substrates. […] Using these compounds.

AANAT [2] = target: T1, AANAT; assay: a-Trifluoromethyltryptamine tested as AANAT substrate and competitive inhibitor; type: biochemical, sheep; parameters: The entire open reading frame of the DNA encoding sheep AANAT in the plasmid vector pET15b; GST (glutathione S-transferase, thrombin-cleavable) (N); made in house; host or cells: Escherichia coli
Protocol: Expression of eukaryotic proteins in bacteria is unpredictable. Indeed, efforts to express the rat and human AANAT protein in E. coli have so far been unsuccessful. In contrast, the sheep enzyme which is 80% identical at the amino acid level to rat and human can be expressed in E. coli as a soluble protein (51). GST-AANAT can be obtained in approximately 90% purity with a yield of 5-10 mg/L of E. coli culture after purification with glutathione-agarose. Optimization of conditions for production of this fusion protein has led to the induction being carried out at 22-24° C. for 5-6 h after 0.2 mM IPTG to prevent inclusion body formation. The fusion protein can be concentrated to>6 mg/mL using an Amicon filter and appears to be stable for at least 6 months when stored at -80° C. in the presence of a thiol-reducing agent. […] Specific activity is also highly reproducible from batch to batch. Cleavage of the fusion protein with thrombin followed by repeat glutathione-affinity chromatography has afforded GST-free AANAT.
Quantitatively, the specific activity is essentially identical to the conventional radioactive assay. Importantly, there is no evidence of significant uncoupling of CoASH production and amide formation with any substrates (or non-substrates) tested.
Commercially available bromotrifluoromethyl ketone was converted to the oxime by reaction with hydroxylamine. The oxime was used to generate the vinyl nitroso derivative which was used in situ to react in a 4+2 cycloaddition and produce the 3-substituted indole. Reduction of this material with LiAlH4 led to generation of racemic a-trifluoromethyltryptamine. a-Trifluoromethyltryptamine was calculated to have a primary amine pKa of approximately 6. […] It is not clear from these studies if the lack of tight binding of a-trifluoromethyltryptamine represents steric or electronic repulsion of the fluorines offset by the tighter binding of the neutral amine function, or if a positively charged amine is the preferred state for binding to AANAT (65).

GST-AANAT [3] = target: T2, GST-AANAT (Ovis aries, UniProt Q29495); assay: Two-substrate steady state kinetics with GST-AANAT; type: biochemical, sheep
T2 construct: The entire open reading frame of the DNA encoding sheep AANAT in the plasmid vector pET15b; made in house; host or cells: Escherichia coli BL21(DE3)pLysS
T2 sequence (Q29495 other isoform, or with tags, fused parts or gaps): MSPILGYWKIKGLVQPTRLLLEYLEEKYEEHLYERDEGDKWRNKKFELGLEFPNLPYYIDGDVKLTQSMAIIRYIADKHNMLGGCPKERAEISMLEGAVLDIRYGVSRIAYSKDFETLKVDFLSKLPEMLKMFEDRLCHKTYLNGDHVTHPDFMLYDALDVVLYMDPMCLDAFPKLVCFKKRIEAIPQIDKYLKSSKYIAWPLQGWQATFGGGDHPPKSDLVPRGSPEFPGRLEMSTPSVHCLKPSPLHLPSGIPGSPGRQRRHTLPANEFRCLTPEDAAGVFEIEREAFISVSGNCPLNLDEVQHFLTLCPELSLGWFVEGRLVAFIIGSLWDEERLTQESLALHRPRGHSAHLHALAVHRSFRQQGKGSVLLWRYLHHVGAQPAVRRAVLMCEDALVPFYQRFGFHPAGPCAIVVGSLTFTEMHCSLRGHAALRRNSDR
Protocol: (§1) DTNB Product Detection Assay
(§2) This assay is based on the detection of CoASH generated during acetyl transfer by reaction with the thiol reagent DTNB (19). […] Reactions were initiated with enzyme (3 μl, 5-30 nM final concentration) that had been prediluted (10-100 fold) in 50 mM sodium phosphate, 500 mM NaCl, 2 mM EDTA, and 0.05 mg/ml bovine serum albumin in the absence of reducing agent immediately before use and maintained on ice during the assay. The reactions were quenched for 0-3 min with 0.6 ml of a buffer containing guanidinium-HCl (3.2 M), sodium phosphate (0.1 M), pH 6.8. […] Background absorbances (with all components added including enzyme) were measured and subtracted from the total absorbance.
Two-Substrate Kinetic Measurements
Two substrate kinetic analysis was performed with substrate concentrations given in FIG. 3, and the data were fitted to the sequential (ternary complex) mechanism equation (Equation 2) using the computer program Kinet-Asyst II™ (IntelliKinetics, State College, Pa.) based on the algorithms of Cleland (20),
.upsilon.=Vm ·A·B/(Ka ·Kb
·Kma ·B+Kmb ·A+A·B)(Eq. 2)
(§3) using a nonlinear least squares approach.

GST-AANAT [4] = target: T2, GST-AANAT; assay: Kinetic measurements with inhibitors of GST-AANAT; type: biochemical, sheep
Protocol: as §1
(§4) This assay is based on the detection of CoASH generated during acetyl transfer by reaction with the thiol reagent DTNB (19). […] Reactions were initiated with enzyme (3 μl, 5-30 nM final concentration) that had been prediluted (10-100 fold) in 50 mM sodium phosphate, 500 mM NaCl, 2 mM EDTA, and 0.05 mg/ml bovine serum albumin in the absence of reducing agent immediately before use and maintained on ice during the assay. The reactions were quenched for 0-3 min with 0.6 ml of a buffer containing guanidinium-HCl (3.2 M), sodium phosphate (0.1 M), pH 6.8. These mixtures were treated with 0.1 ml of DTNB (2 mM, 0.1 M sodium phosphate, pH 6.8, 10 mM EDTA), vortexed, and allowed to stand for 5 min before absorbance readings were performed at 412 nm (thiophenolate-quantified assuming ε=13.7×10^3 M^-1 cm^-1) (19). Background absorbances (with all components added including enzyme) were measured and subtracted from the total absorbance. […] The rate of conversion of acetyl-CoA to CoASH in the absence of amine was negligible over the course of the assay.
Kinetic Measurements with Inhibitors
.upsilon.=Vm ·S/Km (1+I/Kis) (Eq. 3) using a nonlinear least squares approach. The fixed substrate was assumed to be saturating.
.upsilon.=Vm ·S/[Km (1+I/Kis)+S(1+I/Kii)](Eq. […]
as §3
V=Vm ·S/[Km +S(1+I/Kii)] (Eq. 5)
The abbreviations are Kii =Ki intercept and Kis =Ki slope based on double-reciprocal plot analysis according to the nomenclature of Cleland (21). The data for individual experiments with each inhibitor versus a varied substrate were fit to all three inhibitor models. Choice of kinetic fit was based on a combination of visual inspection and comparison of S.E. values and residuals for all three inhibition types

AANAT [5] = target: T1, AANAT; assay: Viscosity studies with sucrose as microviscogen; type: biochemical, sheep; parameters: The entire open reading frame of the DNA encoding sheep AANAT in the plasmid vector pET15b; GST (glutathione S-transferase, thrombin-cleavable) (N); made in house; host or cells: Escherichia coli; settings: for slope of kcat-control/kcat-viscogen vs. relative viscosity: kcat effect (FIG. 10); for rate-determining step: viscosity studies
From the text: An important part of enzyme mechanistic analysis is to determine which step(s) is (are) rate-determining for the enzyme reaction. After the binding of the substrates to the enzyme, there are several potential rate-determining steps, the chemical step or one of the product release steps.
Viscosity effects can be useful for distinguishing product release steps from non-diffusional steps (66). The principle of using viscosity effects to study enzyme reaction kinetics is based on the fundamental inverse relationship between microviscosity and diffusional rates. Thus a linear increase in microviscosity caused by a microviscogen such as sucrose causes a linear decrease in the diffusion of small molecules. Since little diffusion is involved in the chemical step, this step is taken as viscosity-insensitive. However, viscogenic agents (which are used at rather high concentrations) can cause non-diffusion related effects by interacting with the enzyme or substrate. Controls for these non-diffusional effects must be carried out. […] Since poor substrates in general would be expected to have reduced kcat values because the rate of their chemical steps are reduced, any viscosity effects observed would be expected to be related to non-diffusional or "artifactual" effects.

GST-AANAT fusion = GST-AANAT fusion (Ovis aries, UniProt Q29495); assay: DTNB product detection assay, apparent substrate kinetics with GST-AANAT
GST-AANAT fusion, sequence (Q29495 whole entry, the tested form may be a part): as the sequence (Q29495 whole entry) above
Protocol: as §1, §2

GST-AANAT [6] = target: T2, GST-AANAT; assay: Tryptophol tested as alternative substrate of GST-AANAT; type: biochemical, sheep; settings: 1 mM tryptophol, 1 mM acetyl-CoA, up to 3 min
Protocol: as §1, §4
The structural analog to tryptamine in which the primary amine function is replaced by a hydroxyl function (tryptophol) (see FIG. 4) could theoretically be an alternative AANAT substrate.

[7] = varied substrate acetyl-CoA, tryptamine 0.2 mM (subsaturating)
[8] = varied substrate acetyl-CoA, tryptamine 0.2 mM, read-out: Ksi
[9] = varied substrate tryptamine, acetyl-CoA 1 mM
[10] = varied substrate tryptamine, acetyl-CoA 1 mM, read-out: Kis

Structure (SMILES): CC(N)Cc1c[nH]c2ccccc12 (racemic) [a-methyltryptamine]
- AANAT substrate (AANAT [1]): substrates
- kcat and Km compared to tryptamine (AANAT [1]): significantly reduced kcat and Km compared to tryptamine

Structure (SMILES): NC(Cc1c[nH]c2ccccc12)C(F)(F)F (racemic) [a-trifluoromethyltryptamine]
- AANAT substrate (AANAT [2]): not detectably an AANAT substrate
- Ki (AANAT [2]; competitive inhibitor): 3000 ± 1000 µM
- AANAT substrate (AANAT [2]; listed as Ya-Trifluoromethyltryptamine): not to be a substrate

Structure (SMILES): CC(=O)SCCNC(=O)CCNC(=O)[C@H](O)C(C)(C)COP(=O)(O)OP(=O)(O)OC[C@H]1O[C@@H](n2cnc3c(N)ncnc32)[C@H](O)[C@@H]1OP(=O)(O)O [Acetyl-CoA, acetyl-CoA]
- Kd (GST-AANAT [3]; ordered sequential mechanism, read-out: Kin (dissociation constant of the first binding substrate)): 509 ± 156 µM
- Kd (GST-AANAT [3]; read-out: dissociation constant (Kd)): 510 µM

Structure (SMILES): CCNC(=O)CCNC(=O)[C@H](O)C(C)(C)COP(=O)(O)OP(=O)(O)OC[C@H]1O[C@@H](n2cnc3c(N)ncnc32)[C@H](O)[C@@H]1OP(=O)(O)O [Desulfo-CoA, desulfo-CoA]
- Ki (GST-AANAT [4]; quoted in discussion, read-out: K1): 1000 µM
- Kis relative to dissociation constant of acetyl-CoA (GST-AANAT [4]; saturating tryptamine): 2 fold
- Inhibitor pattern (GST-AANAT [4]; varied substrate acetyl-CoA, tryptamine 1 mM): linear competitive inhibitor
- Inhibitor pattern (GST-AANAT [4]; varied substrate acetyl-CoA, tryptamine 1 mM, listed as desulfo-CoA): linear competitive
- Ki (GST-AANAT [4]; varied substrate acetyl-CoA, tryptamine 1 mM, read-out: Kis): 1020 µM and 1000 µM
- Inhibitor pattern (GST-AANAT [4]; varied substrate tryptamine, acetyl-CoA 0.2 mM): noncompetitive inhibitor
- Inhibitor pattern (GST-AANAT [4]; varied substrate tryptamine, acetyl-CoA 0.2 mM, listed as desulfo-CoA): linear noncompetitive
- Ki (GST-AANAT [4]; varied substrate tryptamine, acetyl-CoA 0.2 mM, read-out: Kis): 1340 ± 450 µM
- Ki (GST-AANAT [4]; varied substrate tryptamine, acetyl-CoA 0.2 mM, read-out: Ksi): 1490 ± 230 µM

Structure (SMILES): CC(=O)NCCc1c[nH]c2ccccc12 [N-Acetyltryptamine, N-acetyltryptamine]
- Inhibitor pattern (GST-AANAT [4]; [7]): uncompetitive
- Inhibitor pattern (GST-AANAT [4]; varied substrate acetyl-CoA, tryptamine 0.2 mM (subsaturating), listed as N-acetyltryptamine): uncompetitive inhibitor
- Ki (GST-AANAT [4]; [8]): 331 ± 23 µM
- Inhibitor pattern (GST-AANAT [4]; [9]): noncompetitive
- Inhibitor pattern (GST-AANAT [4]; varied substrate tryptamine, acetyl-CoA 1 mM, listed as N-acetyltryptamine): noncompetitive inhibitor; also recorded: linear noncompetitive
- Ki (GST-AANAT [4]; [10]): 205 ± 29 µM
- Ki (GST-AANAT [4]; varied substrate tryptamine, acetyl-CoA 1 mM, read-out: Ksi): 916 ± 160 µM

Structure (SMILES): CNCCc1c[nH]c2ccccc12 [Nw-methyltryptamine]
- slope of kcat-control/kcat-viscogen vs. relative viscosity (AANAT [5]; sucrose): +0.16±0.03
- slope of kcat/Km control/viscogen vs. relative viscosity (AANAT [5]; sucrose, kcat/Km effect): -0.14±0.03
- rate-determining step (AANAT [5]): the chemical step is rate-determining
- AANAT substrate (AANAT [1]): substrates
- kcat and Km compared to tryptamine (AANAT [1]): significantly reduced kcat and Km compared to tryptamine; also recorded: substantially reduced kcat compared to tryptamine

Structure (SMILES): NCCc1c[nH]c2ccc(O)cc12 [Serotonin, 5-hydroxytryptamine]
- kcat(app) (GST-AANAT fusion; 1 mM (near saturating) concentration of the fixed substrate): 34 ± 2 s⁻¹
- kcat(app) and Km(app) compared with tryptamine (GST-AANAT fusion; serotonin vs tryptamine): nearly indistinguishable from those obtained with tryptamine
- kcat (AANAT [1]; Table 1, tryptamine analogs): 34 ± 1 s⁻¹

Structure (SMILES): NCCc1c[nH]c2ccccc12 [Tryptamine, tryptamine]
- slope of kcat-control/kcat-viscogen vs. relative viscosity (AANAT [5]; sucrose): +0.75±0.08
- rate-determining step (AANAT [5]): product release (or a conformational change associated with product release) is largely rate-determining

Structure (SMILES): OCCc1c[nH]c2ccccc12 [Tryptophol, tryptophol]
- Inhibitor pattern (GST-AANAT [4]; [7]): uncompetitive
- Inhibitor pattern (GST-AANAT [4]; varied substrate acetyl-CoA, tryptamine 0.2 mM (subsaturating), listed as trypochol): linear uncompetitive
- Inhibitor pattern (GST-AANAT [4]; varied substrate acetyl-CoA, tryptamine 0.2 mM (subsaturating), listed as tryptophol): uncompetitive inhibitor
- Ki (GST-AANAT [4]; [8]): 1360 ± 120 µM
- Inhibitor pattern (GST-AANAT [4]; [9]): competitive
- Inhibitor pattern (GST-AANAT [4]; varied substrate tryptamine, acetyl-CoA 1 mM, listed as tryptophol): linear competitive inhibitor
- Ki (GST-AANAT [4]; [10]): 680 ± 78 µM
- Kis relative to Kii in a noncompetitive fit (GST-AANAT [4]; versus acetyl-CoA): more than 10 times
- acetyl transfer (alternative substrate) (GST-AANAT [6]): prevents enzyme-catalyzed acetyl transfer; also recorded: not an alternative substrate
- acetylation efficiency relative to tryptamine, fold less (GST-AANAT [6]): at least 400 fold
- acetyl transfer (alternative substrate) (GST-AANAT [6]; listed as tryptophol): no detectable transfer took place; also recorded: not a substrate
